Results reported in paper PMC7751403, “Development of 2-oindolin-3-ylidene-indole-3-carbohydrazide derivatives as novel apoptotic and anti-proliferative agents towards colorectal cancer cells” (Journal of Enzyme Inhibition and Medicinal Chemistry, 2020).
Like-named read-outs stand apart in the source and are kept apart here.

Experiments:
[1] = system: HT-29 colorectal cancer cell line; test: MTT cell viability assay, HT-29 colorectal cancer cells; assay type: cell-based, human
Procedure: (§1) HT29 and SW620 colorectal cancer cell lines and HFF-1 fibroblast (ATCC, Rockville, USA) were used. HT29 cells were cultured and maintained in Dulbecco’s Modified Eagle’s Medium (DMEM) (GIBCO, by Thermo Fischer Scientific, NY, USA) supplemented with 10% foetal bovine serum (FBS), 100 units/mL penicillin, and 100 µg streptomycin. SW620 and HFF-1 cells were cultured in Roswell Park Memorial Institute medium (RPMI-1640) (GIBCO, by Thermo scientific, NY, USA) supplemented with 10% FBS and 1% penicillin and streptomycin (Napolitano et al., 2015). All cultures were incubated at 37 °C and humidified atmosphere of 5% CO2.
(§2) The cytotoxicity effect of compounds on the colorectal cancer cell lines, HT29 and SW620 in addition to the normal human fibroblasts was measured by MTT (3–(4, 5-dimethylthiazol-2-yl)-2,5-diphenyltetrazolium bromide) (Sigma-Aldrich, St. Louis, MO, USA) as previously described. Briefly, cells were seeded in 96 well culture plates at 5000/well for HT29 and 10,000/well for SW620 for 24 h. Cells were then incubated with different compounds from WAG1 series (1–15) 24 h at 37 °C and humidified 5% CO2 incubator. Freshly prepared 10 µl of 3–(4,5-dimethylthiazol-2-yl)-2,5-diphenyltetrazolium bromide (MTT 5 mM) solution were added to the cells and further incubated for 2 h. Thereafter, 100 µl of dimethyl sulphoxide (DMSO) were added in each well and the crystals were dissolved through careful pipetting. In certain experiment, cells were treated different concentration of 5FU for 72 h. The absorbance of the product was measured at 540 nm using a Synergy™ 2 multi-mode microplate reader (Biotech, VA, USA). The experiments were performed in triplicate for each condition.

[2] = system: SW-620 colorectal cancer cell line; test: MTT cell viability assay, SW-620 colorectal cancer cells; assay type: cell-based, human
Procedure: as §1, §2

BclxL = test: Western blot of BclxL protein expression in SW-620 cells; assay type: cell-based, human; conditions: SW-620, two concentrations, 24 h, immunoblotting
Procedure: (§3) All cells were seeded in a 100 mm dish (1 × 10^6 cells per dish) in 5% CO2 at 37 °C in the appropriate culture medium. The cells with around 50% confluency were treated with compounds for 24 h. At the experiment day, cells were washed with 1x PBS, harvested and lysed in RIPA lysis buffer, combined with protease inhibitors, (Sigma-Aldrich, St. Louis, MO, USA) as described previously[39]). The total protein concentration was evaluated by the colorimetric Bradford protein assay (BIO-RAD inc, CA, USA) at 595 nm absorbance. Lysates were loaded in equal concentration and separated by sodium dodecyl sulfate-polyacrylamide gel electrophoresis (SDS-PAGE) and then transferred to a nitrocellulose membrane by semi-dry. Blocking of the membrane was done by 5% non-fat dried milk for one hour, incubated with the primary antibodies. The primary antibodies used were Bcl2 (cat. no. sc-7382), BclxL (cat. no. sc-8392) and β Actin (cat. no. sc-69879) from (Santa Cruz Biotechnology, Inc., Dallas, TX, USA). The secondary antibodies used were goat anti-mouse IgG-HRP (cat. no. sc-2005) and mouse anti-rabbit IgG-HRP (cat. no. sc-2357) from (Santa Cruz Biotechnology, Inc., Dallas, TX, USA). Detection was done with Luminol HRP chemiluminescence substrate (cat. no. sc-2048) from (Santa Cruz Biotechnology, Inc., Dallas, TX, USA) and then visualised by c-digit blot-scanner (LI-COR, Nebraska, USA).

SW-620 cells = test: Annexin V-FITC/PI apoptosis assay (flow cytometry); assay type: cell-based, human; conditions: 24 h
Procedure: Induction of apoptosis was measured by Dead Cell Apoptosis Kit with Annexin V FITC and PI, for flow cytometry (Thermofischer scientific, OR, USA) according to the manufacturer’s instruction. As described previously (39), cells were seeded in a 6-well plate (3 × 10^5 cells per well) and treated with the various compound for 24 h. Both floating and adherent cells were harvested, pooled together, and incubated with Annexin V-FITC and PI for 15 min on ice in dark. The cells were analysed by BD FACSCalibur™ cell analyser (BD Biosciences, CA, USA) at an emission of 530 nm (FL1 channel) and >575 nm (FL3).

Bcl2 = test: Western blot of Bcl2 protein expression in SW-620 cells; assay type: cell-based, human; conditions: SW-620, two concentrations, 24 h, immunoblotting
Procedure: as §3

[3] = system: normal human skin fibroblast (HFF-1); test: MTT cell viability assay, normal fibroblast HFF-1; assay type: cell-based; conditions: 24 h
Procedure: as §1
The cytotoxicity effect of compounds on the colorectal cancer cell lines, HT29 and SW620 in addition to the normal human fibroblasts was measured by MTT (3–(4, 5-dimethylthiazol-2-yl)-2,5-diphenyltetrazolium bromide) (Sigma-Aldrich, St. Louis, MO, USA) as previously described. Briefly, cells were seeded in 96 well culture plates at 5000/well for HT29 and 10,000/well for SW620 for 24 h. Cells were then incubated with different compounds from WAG1 series (1–15) 24 h at 37 °C and humidified 5% CO2 incubator. […] The absorbance of the product was measured at 540 nm using a Synergy™ 2 multi-mode microplate reader (Biotech, VA, USA). […]

[4] = Homo sapiens, HT-29, MTT, compounds 24 h (5FU 72 h), three separate experiments, read-out: IC50 (nM) HT-29
[5] = Homo sapiens, SW-620, MTT, compounds 24 h (5FU 72 h), three separate experiments, read-out: IC50 (nM) SW-620
[6] = MTT, compounds 24 h (5FU 72 h), three separate experiments, read-out: IC50 (nM) HT-29
[7] = MTT, compounds 24 h (5FU 72 h), three separate experiments, read-out: IC50 (nM) SW-620

| Structure (SMILES) | IC50 [1, 4] [nM] | IC50 [2, 5] [nM] | melting point [°C] | other results |
| --- | --- | --- | --- | --- |
| CCCN1C(=O)C(=NNC(=O)c2c[nH]c3ccccc23)c2cc(Cl)ccc21 [Compound 9d, N'-(5-Chloro-2-oxo-1-propylindolin-3-ylidene)-1H-indole-3-carbohydrazide] | 166 | 290 | 262 to 263 |  |
| O=C1Nc2c(F)cccc2C1=NNC(=O)c1c[nH]c2ccccc12 [Compound 7i, N'-(7-Fluoro-2-oxoindolin-3-ylidene)-1H-indole-3-carbohydrazide] | 140 | 468 | > 300 |  |
| O=C1Nc2ccc(Br)cc2C1=NNC(=O)c1c[nH]c2ccccc12 [Compound 7d, N'-(5-Bromo-2-oxoindolin-3-ylidene)-1H-indole-3-carbohydrazide] | 320 | 133 | 247 to 249 |  |
| O=C1Nc2ccccc2C1=NNC(=O)c1c[nH]c2ccccc12 [Compound 7a, N'-(2-Oxoindolin-3-ylidene)-1H-indole-3-carbohydrazide] | 408 | 145 | 259 to 261 |  |
| O=c1[nH]cc(F)c(=O)[nH]1 [Compound 5-FU, 5-Fluorouracil, reference compound] | 4600 | 1500 |  | IC50 ([1]; Homo sapiens, HT-29, 72 h, MTT, 5FU 72 h, read-out: IC50 against HT-29): 1500 nM; IC50 ([2]; Homo sapiens, SW-620, 72 h, MTT, 5FU 72 h, read-out: IC50 against SW-620): 4600 nM |
| CCCN1C(=O)C(=NNC(=O)c2c[nH]c3ccccc23)c2cc(Br)ccc21 [Compound 9e, N'-(5-Bromo-2-oxo-1-propylindolin-3-ylidene)-1H-indole-3-carbohydrazide] | 290 | 414 | 255 to 256 |  |
| COc1ccc2c(c1)C(=NNC(=O)c1c[nH]c3ccccc13)C(=O)N2 [Compound 7f, N'-(5-Methoxy-2-oxoindolin-3-ylidene)-1H-indole-3-carbohydrazide] | 142 | 37 | 197 to 199 |  |
| Cc1ccc2c(c1)C(=NNC(=O)c1c[nH]c3ccccc13)C(=O)N2 [Compound 7e, N'-(5-Methyl-2-oxoindolin-3-ylidene)-1H-indole-3-carbohydrazide] | 335 | 253 | 201 to 203 |  |
| O=C1Nc2ccc([N+](=O)[O-])cc2C1=NNC(=O)c1c[nH]c2ccccc12 [Compound 7h, N'-(5-Nitro-2-oxoindolin-3-ylidene)-1H-indole-3-carbohydrazide] | 132 | 190 | > 300 | fold more active than 5FU against HT-29 ([1]; ratio of IC50 values versus 5FU): approximately 35 fold |
| CCCN1C(=O)C(=NNC(=O)c2c[nH]c3ccccc23)c2ccccc21 [Compound 9b, N'-(2-Oxo-1-propylindolin-3-ylidene)-1H-indole-3-carbohydrazide] | 525 | 105 | 248 to 250 |  |
| Cc1cc(C)c2c(c1)C(=NNC(=O)c1c[nH]c3ccccc13)C(=O)N2 [Compound 7j, N'-(5,7-Dimethyl-2-oxoindolin-3-ylidene)-1H-indole-3-carbohydrazide] | 200 | 187 | > 300 |  |
| O=C1Nc2ccc(F)cc2C1=NNC(=O)c1c[nH]c2ccccc12 [Compound 7b, N'-(5-Fluoro-2-oxoindolin-3-ylidene)-1H-indole-3-carbohydrazide] | 611 | 175 | > 300 |  |
| O=C(NN=C1C(=O)N(Cc2ccccc2)c2ccccc21)c1c[nH]c2ccccc12 [Compound 9c, N'-(1-Benzyl-2-oxoindolin-3-ylidene)-1H-indole-3-carbohydrazide] | 405 | 283 | 274 to 276 |  |
| CN1C(=O)C(=NNC(=O)c2c[nH]c3ccccc23)c2ccccc21 [Compound 9a, N'-(1-Methyl-2-oxoindolin-3-ylidene)-1H-indole-3-carbohydrazide] | 176 | 260 | 273 to 275 |  |
| O=C1Nc2ccc(OC(F)(F)F)cc2C1=NNC(=O)c1c[nH]c2ccccc12 [Compound 7g, N'-(2-Oxo-5-(trifluoromethoxy)indolin-3-ylidene)-1H-indole-3-carbohydrazide] | 279 | 299 |  | BclxL protein expression (BclxL): inhibit; IC50 [1, 6]: 299 nM; fold total apoptosis increase compared to the control (SW-620 cells; SW-620, 250 nM): approximately 7.3 fold; fold total apoptosis increase compared to the control (SW-620 cells; SW-620, 500 nM): ~9.6 fold; IC50 [2, 7]: 279 nM; Bcl2 protein expression (Bcl2): inhibit; effect on cell viability of HFF-1 [3]: no/or little effect |
| O=C1Nc2ccc(Cl)cc2C1=NNC(=O)c1c[nH]c2ccccc12 [Compound 7c, N'-(5-Chloro-2-oxoindolin-3-ylidene)-1H-indole-3-carbohydrazide] | 188 | 206 |  | BclxL protein expression (BclxL): dose-dependent inhibition; IC50 [1, 6]: 206 nM; fold total apoptosis increase compared to the control (SW-620 cells; SW-620, 250 nM): approximately 5.2 fold; fold total apoptosis increase compared to the control (SW-620 cells; SW-620, 500 nM): ~10.66 fold; IC50 [2, 7]: 188 nM; Bcl2 protein expression (Bcl2): dose-dependent inhibition; effect on cell viability of HFF-1 [3]: no/or little effect |
